Laboratory results from US20230339835A1, “2,3,5-TRIMETHYL-6-NONYLCYCLOHEXA-2,5-DIENE-1,4-DIONE FOR SUPPRESSING AND TREATING ALPHA-SYNUCLEINOPATHIES, TAUOPATHIES, AND OTHER DISORDERS” (PTC THERAPEUTICS, INC., priority 2018, published 2023).

Columns and labels:
[1] = system: N27 rat dopaminergic cells overexpressing a truncated human αSynuclein-GFP fusion protein; assay: Inhibition of RSL3-induced αSynuclein aggregation in N27 cells; type: cell-based; details: 60 nM RSL3, 70 nM compound, 24 hr; for inhibition of RSL3-induced αSynuclein aggregation: vs RSL3 only (Dunnett's test)
Method: N27 rat dopaminergic cells (purchased from EMD Millipore, SCC048) were transformed to stably overexpress truncated α-Synuclein fused with green fluorescent protein (GFP) with a plasmid construct obtained from Origene (RG221446). Cells were maintained in selection media which consisted of RPMI 1640 media supplemented with 10% (v/v) fetal bovine serum (Millipore, ES-009-B), 1% (v/v) Pencillin-Streptomycin (Gibco, 15140-122), 1% (v/v) L-Glutamine (Gibco, 25030-081) and 500 μg/mL of G418 (Gibco, 10131-027).
N27 rat dopaminergic cells overexpressing a truncated (112 amino acid) human αSynuclein-GFP fusion protein, as described above, were maintained in normal culture conditions as described above. The day before the experiment, cells were plated in 96 well optical bottom, black walled plates at 3,000 cells/well, and maintained at 37° C. for 24 hr. The experiment was initiated by co-treating cells with (1S,3R)-methyl 2-(2-chloroacetyl)-1-(4-(methoxycarbonyl)phenyl)-2,3,4,9-tetrahydro-1H-pyrido[3,4-b]indole-3-carboxylate (1S,3R-RSL3, described by Yang et al., Cell 156:317-331 (2014)) (60 nM) and 70 nM compounds (2,3,5-trimethyl-6-nonylcyclohexa-2,5-diene-1,4-dione (C9), 2,3,5-trimethyl-6-octylcyclohexa-2,5-diene-1,4-dione (C8), or 2,3,5-trimethyl-6-heptylcyclohexa-2,5-diene-1,4-dione (C7)) using a D300e compound printer (Tecan), and placed back in the incubator at 37° C. for 24 hr. Cells were fixed with 4% paraformaldehyde for 15 minutes at room temperature, washed 3 times with Dulbecco's phosphate-buffered saline (DPBS) buffer, and then incubated at room temperature for 48 hr with 1% Triton-X 100 solution (in DPBS) to enable selective labeling of aggregated αSynuclein. Cells were then washed and standard immunocytochemistry (ICC) methods were employed to label total αSynuclein (mouse anti-αSynuclein, 1:250, BD Biosciences). Cells were incubated with primary antibody overnight at 4° C. and then washed with DPBS 3 times the following day. Cells were then incubated at room temperature with a fluorescently conjugated secondary antibody (goat anti-mouse Alexa 647, Invitrogen) for 2 hr at room temperature. 10 nM Hoechst was also added to label nuclei, and cells were imaged on a high-content imaging platform (ThermoFisher, HSC Cellomics Arrayscan) to quantify total aggregated αSynuclein (see FIG. 3A).
Statistical analysis of samples was performed via ordinary one-way ANOVA analysis with Dunnett's multiple comparisons test, comparing RSL3 only-treated vs. RSL3 plus compound-treated cells.

[2] = target: T1, recombinant human αSynuclein (Homo sapiens, UniProt P37840); assay: Cell-free αSynuclein aggregation assay (Thioflavin T); type: biochemical; details: 200 μM αSynuclein, 100 μM compound, t=24 hours, one-way ANOVA with Tukey's test
T1 construct: purchased Proteos, Inc
Method: Summary: The compound 2,3,5-trimethyl-6-nonylcyclohexa-2,5-diene-1,4-dione (“C9”), and its C8 (2,3,5-trimethyl-6-octylcyclohexa-2,5-diene-1,4-dione) and C7 (2,3,5-trimethyl-6-heptylcyclohexa-2,5-diene-1,4-dione) analogs were tested for their function as inhibitors of αSynuclein aggregation, as measured by the presence and extent of a lag phase in the kinetics of protein aggregation. Changes in the fluorescence intensity by the aggregate-binding fluorophore, Thioflavin T, were followed to report on the protein aggregation as a function of time.
Experimental Methods: Cell-free αSynuclein aggregation assays were set up with 200 μM of recombinant human αSynuclein (Proteos, Inc.) in the presence of 100 μM of compound (from 10 mM stock solutions in DMSO) or in 1% (v/v) DMSO as vehicle. All solutions were prepared in Dulbecco's phosphate-buffered saline (DPBS) buffer (pH 7.4) with 0.03% (v/v) NaN3 and 5 μM Thioflavin T (ThT), prepared as a master mix before addition of the protein or compounds. A protein master mix was then prepared and separated into 4 tubes (1 per condition). […]
Protein solution+/−compound and background samples were then loaded into wells of an optically transparent 96-well plate with black walls (Corning Costar), which was sealed with a LightCycler® 480 seal (Roche Life Science), incubated at 37° C. for 15 minutes to equilibrate, after which the data collection was started. A Tecan M1000 spectrometer was used to collect data points on ThT fluorescence (ex/em 450/490 nm) every 30 minutes. The plate was agitated by shaking in between fluorescence reads.
Data Analysis and Results: Fluorescence intensity data were collected on all the samples over time. The endpoint fluorescence intensity unit (FIU) value of the mean of vehicle-treated αSyn samples was set to 100%, and all other FIU values were normalized relative to it (see FIG. 1A). The end results were plotted as normalized ThT fluorescence (%) with respect to time.
Normalized ThT fluorescence values (% FIU) at t=24 hours were used to compare samples (see FIG. 1B). […]

SMILES	inhibition of RSL3-induced αSynuclein aggregation [1]	inhibition of αSynuclein aggregation (normalized ThT fluorescence vs vehicle) [2]	level of aggregation inhibition over C8 [1]
CCCCCCCCC1=C(C)C(=O)C(C)=C(C)C1=O [Compound C8, 2,3,5-trimethyl-6-octylcyclohexa-2,5-diene-1,4-dione, reference compound]	significant inhibition	not statistically significant	
CCCCCCCCCC1=C(C)C(=O)C(C)=C(C)C1=O [Compound C9, 2,3,5-trimethyl-6-nonylcyclohexa-2,5-diene-1,4-dione]	significant inhibition	significant inhibition effect	approximately 5.45 fold
